Source: patent US20050032882A1, “Botanical extract compositions and methods of use” (priority 2002, published 2005)
Converted amounts (≈) assume the structure as drawn.

Experiments:
LNCaP cells = assay: LNCaP cell cycle by DNA content flow cytometry; format: cell-based; conditions: LNCaP cells exposed 24-48 hours, DAPI DNA content flow cytometry
Experimental: The cells were washed with phosphate buffered saline (PBS) and fixed in ice-cold 70% ethanol. […] ([…]. Juan, […]. Chen, F. Traganos and Z. Darzynkiewicz, “Apoptosis and Cell Cycle Effects Induced by Extracts of the Chinese Herbal Preparation of PC SPES”, International J. of Oncology (1997), 11: 437-448). The cellular DNA content was measured with an ELITE ESP flow cytometer (Coulter Inc., Fl.) using UV laser illumination. The multicycle program was used to deconvolute the DNA frequency histograms to estimate the frequency of cells in different phases of the cell cycle. […] Similar measurements were conducted for isoliquiritigenin.

[1] = tested on: LNCaP (androgen-dependent) prostate cancer cells; assay: MTT cell viability assay, LNCaP prostate cancer cells; format: cell-based; conditions: concentration giving 50% inhibition of cancer cell growth, 72 hours, linear interpolation
Source text: (§1) Cancer cell lines: LNCaP, DU-145, and MCF-7 cells were purchased from the American Type Culture Collection. […] Cells were maintained in RPMI 1640 culture media supplemented with 10% heat-inactivated FBS, 5 millimolar glutamine, 50 units/milliliter of penicillin G, and 50 […] of streptomycin. The cells were routinely seeded at 1×10^5 cells/milliliter in T-75 flasks, allowed to attach overnight, then treated with the herbal extract. At different times, cells were harvested by trypsinization. […] The assay reagents were purchased from Boehringer Mannheim (Roche Diagnosis Corp, Indianapolis, Ind.). […] The protocol for the cell viability assay was provided by the manufacturer and modified in our laboratory as described below. […] After 24 hours, 20 microliter aliquots of the compounds at various concentrations were added to the attached cells. […] The plates were incubated at 37° C. in a CO2 incubator for 72 hours. At the end of day 3 (after 72 hours), the culture medium was carefully removed without disturbing the cells and replaced by 100 microliters of fresh cell medium.

[2] = tested on: PTX 10 (taxol resistant ovarian cancer cell line); assay: MTT cell viability assay, PTX 10 taxol-resistant ovarian cancer cells; format: cell-based; conditions: protocol as Example 1
Source text: Cancer cell lines: LNCaP, DU-145, and MCF-7 cells were purchased from the American Type Culture Collection. PTX 10, a taxol-resistant ovarian cancer cell line, was obtained from the Brander Cancer Research Laboratory, New York Medical College. Cells were maintained in RPMI 1640 culture media supplemented with 10% heat-inactivated FBS, 5 millimolar glutamine, 50 units/milliliter of penicillin G, and 50 […] of streptomycin. The cells were routinely seeded at 1×10^5 cells/milliliter in T-75 flasks, allowed to attach overnight, then treated with the herbal extract. At different times, cells were harvested by trypsinization.
The assay reagents were purchased from Boehringer Mannheim (Roche Diagnosis Corp, Indianapolis, Ind.). […] The protocol for the cell viability assay was provided by the manufacturer and modified in our laboratory as described below.
After 24 hours, 20 microliter aliquots of the compounds at various concentrations were added to the attached cells. […] The plates were incubated at 37° C. in a CO2 incubator for 72 hours. At the end of day 3 (after 72 hours), the culture medium was carefully removed without disturbing the cells and replaced by 100 microliters of fresh cell medium.

[3] = tested on: MCF-7 breast cancer cells; assay: MTT cell viability assay, MCF-7 breast cancer cells; format: cell-based; conditions: concentration giving 50% inhibition of cancer cell growth, 72 hours, linear interpolation
Source text: Cancer cell lines: LNCaP, DU-145, and MCF-7 cells were purchased from the American Type Culture Collection. […] Cells were maintained in RPMI 1640 culture media supplemented with 10% heat-inactivated FBS, 5 millimolar glutamine, 50 units/milliliter of penicillin G, and 50 […] of streptomycin. The cells were routinely seeded at 1×10^5 cells/milliliter in T-75 flasks, allowed to attach overnight, then treated with the herbal extract. At different times, cells were harvested by trypsinization. […] The assay reagents were purchased from Boehringer Mannheim (Roche Diagnosis Corp, Indianapolis, Ind.). […] The protocol for the cell viability assay was provided by the manufacturer and modified in our laboratory as described below. CSO-0001-P […] After 24 hours, 20 microliter aliquots of the compounds at various concentrations were added to the attached cells. […] The plates were incubated at 37° C. in a CO2 incubator for 72 hours. […] The plate was allowed to stand overnight in the CO2 incubator and read by an ELISA Reader (EL800, Bio-Tek Instruments, Inc.) at a wavelength of 570 nm. The percent cell viability was calculated according to the equation below: [formula] where V is the percent cell viability, Acontrol is the absorption of the control cells, and Atreated is the absorption of the treated cells. […]

[4] = tested on: DU-145 (androgen-independent) prostate cancer cells; assay: MTT cell viability assay, DU-145 prostate cancer cells; format: cell-based; conditions: concentration giving 50% inhibition of cancer cell growth, 72 hours, linear interpolation
Source text: as §1

COX-2 = molecular target: T1, COX-2 (Ovis aries, UniProt P79208); assay: ovine COX-2 Inhibitor Screening Assay (Cayman, prostaglandin immunoassay); format: biochemical; conditions: ovine COX-2, arachidonic acid substrate; read-out: IC50 COX-2 inhibition
T1 construct: purchased Cayman Chemical 760101
T1 sequence (P79208 17-603): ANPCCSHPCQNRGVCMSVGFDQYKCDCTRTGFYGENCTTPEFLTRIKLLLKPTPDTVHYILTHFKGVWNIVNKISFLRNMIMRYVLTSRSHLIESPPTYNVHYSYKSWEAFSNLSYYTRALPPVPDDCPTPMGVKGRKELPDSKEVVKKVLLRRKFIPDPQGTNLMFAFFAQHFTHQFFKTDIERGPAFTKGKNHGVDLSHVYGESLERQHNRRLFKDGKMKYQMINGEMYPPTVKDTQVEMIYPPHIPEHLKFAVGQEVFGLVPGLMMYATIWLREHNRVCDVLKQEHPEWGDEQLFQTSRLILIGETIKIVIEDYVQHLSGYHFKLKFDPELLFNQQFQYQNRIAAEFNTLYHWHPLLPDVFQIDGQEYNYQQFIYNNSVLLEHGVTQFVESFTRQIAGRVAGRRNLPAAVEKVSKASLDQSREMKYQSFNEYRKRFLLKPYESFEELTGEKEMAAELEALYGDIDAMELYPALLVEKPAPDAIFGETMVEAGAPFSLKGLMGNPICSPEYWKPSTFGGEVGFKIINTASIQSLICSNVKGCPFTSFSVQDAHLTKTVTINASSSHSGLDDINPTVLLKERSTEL
Experimental: This immunoassay uses an antibody to that binds all major prostaglandins to measure quantitatively the amount of PGF2α produced in the COX reaction using arachidonic acid as a substrate. The final volume of the reactions as described below is typically 1.15 ml. In brief, COX-1 or COX-2 (e.g., 20 μl of a solution of from 1 to 100 units/ml COX, where a unit is defined as the amount of enzyme that consumes one nanomole of oxygen per minute at 37° C. in 0.1 M Tris-HCl buffer, pH 8.0 containing 100 μM arachidonate, 5 mM EDTA, 2 mM phenol and 1 μM hematin) is first mixed with a buffer (e.g., 0.1 M Tris, pH 8.0, 5 mM EDTA, 2 mM phenol) and heme (e.g., 10 μl of 10 mM heme) in a microfuge tube. The heme is a cofactor for COX that provides maximal activity in the assay. […] The prostaglandin produced in the reactions is typically quantified using an enzyme immunoassay.
The enzyme immunoassay to detect prostaglandin can conveniently be performed in a 96 well plate using an antibody to detect prostaglandin. As controls, prostaglandin standards and COX 100% activity samples (no inhibitor) can be measured. […] When ready to develop the plate, the reactions are first washed and then incubated with 200 μl of Ellman's reagent for 60 minutes or so. The plate can be read at 405 to 420 nm on a plate reader. […]

DU-145 cells = assay: DU-145 cell cycle by DNA content flow cytometry; format: cell-based; conditions: protocol of Example 3
Experimental: The cells were washed with phosphate buffered saline (PBS) and fixed in ice-cold 70% ethanol. […] ([…]. Juan, […]. Chen, F. Traganos and Z. Darzynkiewicz, “Apoptosis and Cell Cycle Effects Induced by Extracts of the Chinese Herbal Preparation of PC SPES”, International J. of Oncology (1997), 11: 437-448). The cellular DNA content was measured with an ELITE ESP flow cytometer (Coulter Inc., Fl.) using UV laser illumination. The multicycle program was used to deconvolute the DNA frequency histograms to estimate the frequency of cells in different phases of the cell cycle.

IC50 (COX-2) | SMILES | effect on LNCaP cell cycle phases (G1, S, G2M) (LNCaP cells) | ED50 from MTT assay, LNCaP [1] | ED50 PTX 10 (taxol resistant ovarian cancer cell) [2] | ED50 from MTT assay, MCF7 [3] | ED50 from MTT assay, DU145 [4] | effect on DU-145 cell cycle phases (DU-145 cells)
10.5 µM | O=C(/C=C/c1ccc(O)cc1)c1ccc(O)cc1O [Isoliquiritigenin, 2′,4,4′-trihydroxychalcone] | induced a G2M phase arrest | 3.51 µg/mL (≈ 13.7 µM) | 3.32 µg/mL (≈ 13 µM) | 3.25 µg/mL (≈ 12.7 µM) | 7.60 µg/mL (≈ 29.7 µM) | –
– | COc1c(O)cc(O)c2c(=O)cc(-c3ccccc3)oc12 [Wogonin, 5,7-dihydroxy-8-methoxy-flavone] | induced a G1 phase arrest | – | – | – | – | prolonged the G2M phase
